# Data taken from ChEMBL document CHEMBL1201862, “PubChem BioAssay data set” (2004).
#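 Method: 48-hour compound exposure of cells in 96-well plates, five concentrations, linear interpolation of endpoints. Here, GI50 denotes the concentration required for 50% inhibition of growth.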 Active and inactive are the calls of the source. Cut-off read from the data, not from the text of the source: active = GI50 up to about 1.1 µM and inactive = higher.
# Columns and labels:
# Test in all cases: NCI anticancer screen, dose series, 48 h
# SK-MEL-5 = test system: SK-MEL-5
# U-251 = test system: U-251
# SF-268 = test system: SF-268
# HCT-116 = test system: HCT-116
# K562 = test system: K562
# SK-OV-3 = test system: SK-OV-3
# SNB-75 = test system: SNB-75
# MOLT-4 = test system: MOLT-4
# TK-10 = test system: TK-10
# UACC-257 = test system: UACC-257
# NCI/ADR-RES = test system: NCI/ADR-RES
# NCI-H460 = test system: NCI-H460
# SK-MEL-2 = test system: SK-MEL-2
# MCF7 = test system: MCF7
# HCT-15 = test system: HCT-15
# HOP-62 = test system: HOP-62
# EKVX = test system: EKVX
# OVCAR-5 = test system: OVCAR-5
# OVCAR-3 = test system: OVCAR-3
# SNB-19 = test system: SNB-19
Compound,GI50 (SK-MEL-5),GI50 (U-251),GI50 (SF-268),GI50 (HCT-116),GI50 (K562),GI50 (SK-OV-3),GI50 (SNB-75),GI50 (MOLT-4),GI50 (TK-10),GI50 (UACC-257),GI50 (NCI/ADR-RES),GI50 (NCI-H460),GI50 (SK-MEL-2),GI50 (MCF7),GI50 (HCT-15) [µM],GI50 (HOP-62),GI50 (EKVX),GI50 (OVCAR-5),GI50 (OVCAR-3),GI50 (SNB-19)
COc1cc2c(cc1OCCCCN1CCN(CCCCOc3cc4c(cc3OC)C(=O)N3CCC[C@H]3C=N4)CC1)N=C[C@@H]1CCCN1C2=O,0.0138 µM (active),0.0167 µM (active),< 0.0289 µM (active),0.0216 µM (active),0.0199 µM (active),4.45 µM (inactive),0.0262 µM (active),< 0.01 µM (active),0.0589 µM (active),0.0627 µM (active),1.94 µM (inactive),0.0234 µM (active),0.0389 µM (active),< 0.0318 µM (active),1.14,0.0236 µM (active),0.281 µM (active),0.0417 µM (active),0.0372 µM (active),
c1cc2ccc3cc4ncccc4c4ccc(c1)c2c34,,17.9 µM (inactive),30.7 µM (inactive),12 µM (inactive),59.4 µM (inactive),37.2 µM (inactive),19.8 µM (inactive),8.59 µM (inactive),22.8 µM (inactive),56.8 µM (inactive),31.6 µM (inactive),5.05 µM (inactive),16.6 µM (inactive),0.338 µM (active),7.73,19.9 µM (inactive),22.5 µM (inactive),84.7 µM (inactive),82.2 µM (inactive),90.8 µM (inactive)
Cn1cnc([N+](=O)[O-])c1[Se]c1ncnc2nc[nH]c12,1.66 µM (inactive),4.6 µM (inactive),7.46 µM (inactive),2.34 µM (inactive),4.07 µM (inactive),15.4 µM (inactive),19.6 µM (inactive),4.71 µM (inactive),1.91 µM (inactive),2.04 µM (inactive),2.07 µM (inactive),22.1 µM (inactive),10.4 µM (inactive),13.6 µM (inactive),15.6,12 µM (inactive),21.2 µM (inactive),11.4 µM (inactive),2 µM (inactive),24 µM (inactive)
CC1(C)C(=O)N(O)C(C)(C)N1O,> 10 µM (inactive),> 10 µM (inactive),> 10 µM (inactive),> 10 µM (inactive),> 10 µM (inactive),> 10 µM (inactive),> 10 µM (inactive),> 10 µM (inactive),> 10 µM (inactive),> 10 µM (inactive),> 10 µM (inactive),> 10 µM (inactive),> 10 µM (inactive),> 10 µM (inactive),> 10,> 10 µM (inactive),> 10 µM (inactive),> 10 µM (inactive),> 10 µM (inactive),> 10 µM (inactive)
CCOC(=O)C(Cc1ccc(OC(=O)OC(C)(C)C)cc1)NC(=O)OC(C)(C)C (stereo not drawn),> 100 µM (inactive),37.2 µM (inactive),65.2 µM (inactive),78 µM (inactive),76.4 µM (inactive),> 100 µM (inactive),17.1 µM (inactive),19.7 µM (inactive),71.1 µM (inactive),21.3 µM (inactive),49.9 µM (inactive),> 100 µM (inactive),> 100 µM (inactive),> 100 µM (inactive),> 100,> 100 µM (inactive),> 100 µM (inactive),> 100 µM (inactive),40.6 µM (inactive),> 100 µM (inactive)
C=CC(C)(C)c1c(OC)oc2ccc(OC)c(C)c2c1=O,61.7 µM (inactive),> 100 µM (inactive),> 100 µM (inactive),89.7 µM (inactive),78.2 µM (inactive),> 100 µM (inactive),89.5 µM (inactive),49.5 µM (inactive),> 100 µM (inactive),> 100 µM (inactive),96.8 µM (inactive),> 100 µM (inactive),> 100 µM (inactive),> 100 µM (inactive),98.2,> 100 µM (inactive),> 100 µM (inactive),> 100 µM (inactive),> 100 µM (inactive),> 100 µM (inactive)
CC(=O)NC1CONC1=O (stereo not drawn),> 100 µM (inactive),> 100 µM (inactive),> 100 µM (inactive),> 100 µM (inactive),> 100 µM (inactive),> 100 µM (inactive),> 100 µM (inactive),> 100 µM (inactive),> 100 µM (inactive),> 100 µM (inactive),> 100 µM (inactive),> 100 µM (inactive),> 100 µM (inactive),> 100 µM (inactive),> 100,> 100 µM (inactive),> 100 µM (inactive),> 100 µM (inactive),> 100 µM (inactive),> 100 µM (inactive)
C/C(=C\COP(=O)(O)OP(=O)(O)O)CC/C=C(\C)CNc1c(F)c(F)c(F)c(F)c1F,> 100 µM (inactive),> 100 µM (inactive),> 100 µM (inactive),> 25.5 µM (inactive),> 100 µM (inactive),> 100 µM (inactive),1.69 µM (inactive),> 100 µM (inactive),> 51.1 µM (inactive),> 70.3 µM (inactive),> 100 µM (inactive),> 100 µM (inactive),> 100 µM (inactive),> 100 µM (inactive),> 100,> 100 µM (inactive),> 54.3 µM (inactive),> 100 µM (inactive),> 100 µM (inactive),> 100 µM (inactive)
CC(=O)Oc1ccc2c(c1)c1c(OC(C)=O)c3ccccc3c(OC(C)=O)c1n2Cc1cccc(C)c1,,22.3 µM (inactive),29.8 µM (inactive),33.2 µM (inactive),32.1 µM (inactive),20.4 µM (inactive),18.5 µM (inactive),34.6 µM (inactive),50.8 µM (inactive),,> 100 µM (inactive),30.3 µM (inactive),20 µM (inactive),44.3 µM (inactive),53.7,25.3 µM (inactive),15.8 µM (inactive),34.4 µM (inactive),21.4 µM (inactive),67 µM (inactive)
Cc1cc(S(=O)(=O)Nc2nc(N)n[nH]2)c(SCC(=O)O)cc1Cl,> 10 µM (inactive),> 10 µM (inactive),> 10 µM (inactive),> 10 µM (inactive),> 10 µM (inactive),> 10 µM (inactive),> 10 µM (inactive),> 10 µM (inactive),> 10 µM (inactive),> 10 µM (inactive),> 10 µM (inactive),> 10 µM (inactive),> 10 µM (inactive),> 10 µM (inactive),> 10,> 10 µM (inactive),> 10 µM (inactive),> 10 µM (inactive),> 10 µM (inactive),> 10 µM (inactive)
CCCC/C=C1/CCC(CN(C)C)C1=O (stereo not drawn),9.02 µM (inactive),1.97 µM (inactive),2.47 µM (inactive),1.84 µM (inactive),0.701 µM (active),12.9 µM (inactive),3.21 µM (inactive),,1.01 µM (active),2.17 µM (inactive),2.64 µM (inactive),,4.49 µM (inactive),0.525 µM (active),0.401,20 µM (inactive),,6.01 µM (inactive),1.94 µM (inactive),5.97 µM (inactive)
CCS(=O)(=O)c1c2cc(OC)ccc2nc2ccc(OC)cc12,,> 100 µM (inactive),> 100 µM (inactive),> 100 µM (inactive),> 100 µM (inactive),> 100 µM (inactive),> 100 µM (inactive),> 100 µM (inactive),> 100 µM (inactive),> 100 µM (inactive),> 100 µM (inactive),> 100 µM (inactive),> 100 µM (inactive),> 100 µM (inactive),> 100,> 100 µM (inactive),> 100 µM (inactive),> 100 µM (inactive),> 100 µM (inactive),> 100 µM (inactive)
CNC(=O)Nc1cc2c3c(c1)CCCN3CCC2,> 10 µM (inactive),> 10 µM (inactive),> 10 µM (inactive),> 10 µM (inactive),> 10 µM (inactive),> 10 µM (inactive),> 10 µM (inactive),,> 10 µM (inactive),> 10 µM (inactive),> 10 µM (inactive),> 10 µM (inactive),> 10 µM (inactive),> 10 µM (inactive),> 10,> 10 µM (inactive),> 10 µM (inactive),> 10 µM (inactive),> 10 µM (inactive),> 10 µM (inactive)
Clc1cccc2[nH]ncc12,> 100 µM (inactive),> 100 µM (inactive),,66.7 µM (inactive),> 100 µM (inactive),> 100 µM (inactive),45.3 µM (inactive),> 100 µM (inactive),> 100 µM (inactive),> 100 µM (inactive),> 100 µM (inactive),> 100 µM (inactive),> 100 µM (inactive),64.6 µM (inactive),> 100,> 100 µM (inactive),32.4 µM (inactive),> 100 µM (inactive),> 100 µM (inactive),> 100 µM (inactive)
COc1ccc(/C=C2/C(=O)N(/C=C3\C(=O)Oc4ccccc4C3=O)/C(=N/C(C)=O)N2C)cc1OC,> 100 µM (inactive),> 100 µM (inactive),> 100 µM (inactive),> 100 µM (inactive),> 100 µM (inactive),> 100 µM (inactive),45.9 µM (inactive),> 100 µM (inactive),,> 100 µM (inactive),> 100 µM (inactive),> 100 µM (inactive),> 100 µM (inactive),> 100 µM (inactive),> 100,> 100 µM (inactive),> 100 µM (inactive),> 100 µM (inactive),0.143 µM (active),
